{
  "source": "patent US7285567B2",
  "about": "“Halogenated benzamide derivatives” (Romark Laboratories, L.C., priority 2005, dated 2007)",
  "key": {"[1]": {"system": "Rotavirus: Simian Rotavirus SA-11", "assay": "microbe, parasite or virus in culture", "type": "cell-based", "conditions": "Simian rotavirus SA-11, MA104 cell culture"}, "Influenza A: PR8 strain": {"system": "Influenza A: PR8 strain", "assay": "microbe, parasite or virus in culture", "type": "cell-based, Influenza A virus"}, "[2]": {"system": "Paramyxovirus: Sendai virus", "assay": "microbe, parasite or virus in culture", "type": "cell-based", "conditions": "Sendai virus, 37RC cell culture (Table 1)"}, "[3]": {"system": "Coronavirus: canine coronavirus strain S-378", "assay": "microbe, parasite or virus in culture", "type": "cell-based", "conditions": "canine coronavirus strain S-378, A72 cell culture"}, "[4]": {"system": "Rhabdovirus: Vesicular stomatitis virus", "assay": "microbe, parasite or virus in culture", "type": "cell-based"}, "[5]": {"assay": "Cytotoxicity in 2.2.15 cells (neutral red dye uptake)", "type": "cell-based", "conditions": "human, 2-fold depression of neutral red dye uptake", "procedure": "Anti-Hepatitis B Virus (HBV) analyses and an assessment of cytotoxicity were performed in a 9-day assay in the chronically-producing HBV human hepatoblastoma cell line, 2.2.15, as previously described (Korba, B. E. & Gerin, J. L. Use of a standardized cell culture assay to assess activities of nucleosides analogues against hepatitis B virus replication. Antivir. Res. 19, 55-70 (1992)).\nValues presented (±standard deviations [S.D.]) were calculated by linear regression analysis using data combined from all treated cultures. S.D. were calculated using the standard error of regression generated from linear regression analyses (QuattroPro™). EC50, EC90=drug concentration at which a 2-fold, or a 10-fold depression of HBV DNA (relative to the average levels in untreated cultures), respectively, was observed, CC50=drug concentration at which a 2-fold depression of neutral red dye uptake (relative to the average levels in untreated cultures) was observed, The EC90 values were used for the calculation of the Selectivity Indexes [S.I.] since at least a 3-fold depression of HBV levels is typically required to achieve statistical significance in this assay system. HBV R.I.=intracellular HBV DNA replication intermediate."}, "[6]": {"system": "hepatitis C virus (HCV) replicon", "assay": "HCV replication in AVA5 replicon cell culture, 3-day assay", "type": "cell-based", "conditions": "AVA5 cells", "procedure": "(§1) Anti-Hepatitis C Virus (HCV) analyses and an assessment of cytotoxicity were performed in a 3-day assay in the HCV replicon-containing human hepatoblastoma cell line, AVA5 (Okuse, C., Rinaudo, J. A., Farrar, K., Wells, F. & Korba, B. E. Enhancement of antiviral activity against hepatitis C virus in vitro by interferon combination therapy. Antivir. Res. 65, 23-34 (2005)) as previously described (Blight, K. J., Kolykhalov, A. A. & Rice, C. M. Efficient initiation of HCV RNA replication in cell culture. Science 290, 1972-1974 (2000)).\n(§2) Values presented (±standard deviations [S.D.]) were calculated by linear regression analysis using data combined from all treated cultures. S.D. were calculated using the standard error of regression generated from the linear regression analyses (QuattroPro™). EC50, EC90=drug concentration at which a 2-fold, or a 10-fold depression of HCV RNA (relative to the average levels in untreated cultures), respectively, was observed. CC50=drug concentration at which a 2-fold depression of neutral red dye uptake was observed relative to the average levels in untreated cultures. Selectivity index=CC50/EC50."}, "[7]": {"assay": "Cytotoxicity in AVA5 cells (neutral red dye uptake)", "type": "cell-based, human", "conditions": "human, 2-fold depression of neutral red dye uptake", "procedure": "as §1, §2"}, "B. fragilis group": {"system": "B. fragilis group", "assay": "CLSI agar dilution MIC, anaerobic clinical isolates", "type": "cell-based", "conditions": "Bacteroides fragilis, B. fragilis gp (40 isolates), 48 h, 35° C.", "procedure": "(§3) Methods. Recent clinical anaerobic isolates (2000 to date) comprised 40 B. fragilis group, 26 Prevotella/Porphyromonas, 28 fusobacteria, 16 anaerobic Gram positive cocci, 14 anaerobic Gram-positive non-sporeforming rods and 18 clostridia. CLSI agar dilution MIC methodology with enriched Brucella blood agar and inocula of 1×10^5 cfu/spot was used. Plates were incubated in an anaerobic glove box at 35° C. for 48 h. Results."}, "Prevotella/Porphyromonas": {"system": "Prevotella/Porphyromonas", "assay": "CLSI agar dilution MIC, anaerobic clinical isolates", "type": "cell-based", "conditions": "Prev/Porphy (26 isolates), 48 h", "procedure": "as §3"}, "fusobacteria": {"system": "fusobacteria", "assay": "CLSI agar dilution MIC, anaerobic clinical isolates", "type": "cell-based", "conditions": "Fusobacteria (28 isolates), 48 h", "procedure": "as §3"}, "[8]": {"system": "anaerobic Gram positive cocci", "assay": "CLSI agar dilution MIC, anaerobic clinical isolates", "type": "cell-based", "conditions": "Gram + cocci (16 isolates), 48 h"}, "[9]": {"system": "anaerobic Gram-positive non-sporeforming rods", "assay": "CLSI agar dilution MIC, anaerobic clinical isolates", "type": "cell-based", "conditions": "Gram + rods (14 isolates), 48 h"}, "clostridia": {"system": "clostridia", "assay": "organism not typed", "type": "cell-based", "conditions": "Clostridia (18 isolates), agar dilution, 48 h"}, "[10]": {"system": "anaerobic bacteria (all 142 isolates)", "assay": "CLSI agar dilution MIC, all anaerobic clinical isolates", "type": "cell-based"}, "[11]": {"system": "Human Rhinovirus Type 39 (HRV-39)", "assay": "Multiple cycle CPE inhibition assay on OH-I Hela cell monolayers", "type": "cell-based", "conditions": "Rhinovirus A, HRV39, HRV-39, OH-Hela, 2% McCoys + Hepes Buffer", "procedure": "(§4) EC50 (μg/mL) values for 2-(acetolyloxy)-3-methyl-N-(5-bromo-2-thiazolyl)benzamide (RM4803), 2-(acetolyloxy)-3-methyl-N-(5-chloro-2-thiazolyl)benzamide (RM4804), and 2-(acetolyloxy)-3-methoxy-N-(5-bromo-2-thiazolyl)benzamide (RM4806), on Human Rhinovirus Type 39 (HRV-39), and H3N2 influenza virus, type A, using a multiple cycle CPE inhibition assay on OH-I Hela and Madin Darby Canine Kidney (MDCK) cell monolayers, respectively, were measured by microscopic and spectrophotometric methods. Pirodavir and Oseltamivir were included as positive controls."}, "[12]": {"system": "H3N2 influenza virus, type A", "assay": "Multiple cycle CPE inhibition assay on MDCK cell monolayers", "type": "cell-based", "conditions": "0% EMEM + Hepes + Trypsin", "procedure": "as §4"}, "[13]": {"conditions": "All (142 isolates), agar dilution, 48 h"}, "[14]": {"conditions": "microscopic reading, read-out: EC50, Microscopic"}, "[15]": {"conditions": "spectrophotometric reading, read-out: EC50, Spectrophotometer"}},
  "note": "Read-outs that look alike come from different tables or passages of the source.",
  "data": [
    {"smiles": "CC(=O)Oc1c(C)cccc1C(=O)Nc1ncc(Br)s1", "note": "[RM-4803, 2-(acetolyloxy)-3-methyl-N-(5-bromo-2-thiazolyl)benzamide]", "values": [
      {"measurement": "EC50", "setting": "[1]; Rotavirus A", "result": 0.06, "unit": "µM"},
      {"measurement": "SI (selectivity index) = CC50/EC50", "setting": "[1]; CC50 by MTT", "result": "> 2500"},
      {"measurement": "SI (selectivity index) = CC50/EC50", "setting": "Influenza A: PR8 strain; Influenza A PR8 strain, MDCK cell culture, CC50 by MTT", "result": "> 50"},
      {"measurement": "EC50", "setting": "Influenza A: PR8 strain; Influenza A virus, PR8, MDCK", "result": 2.8, "unit": "µM"},
      {"measurement": "EC50", "setting": "[2]; Respirovirus muris", "result": 1.1, "unit": "µM"},
      {"measurement": "SI (selectivity index) = CC50/EC50", "setting": "[2]; CC50 by MTT", "result": "> 125"},
      {"measurement": "EC50", "setting": "[3]; Alphacoronavirus 1, A-72", "result": 4.2, "unit": "µM"},
      {"measurement": "SI (selectivity index) = CC50/EC50", "setting": "[3]; CC50 by MTT", "result": 13},
      {"measurement": "EC50", "setting": "[4]; MA104", "result": 2.8, "unit": "µM"},
      {"measurement": "SI (selectivity index) = CC50/EC50", "setting": "[4]; MA104 cell culture, CC50 by MTT", "result": "> 50"},
      {"measurement": "CC50 at 9 day", "setting": "[5]", "result": "> 1000", "unit": "µM"},
      {"measurement": "Selectivity Index", "setting": "[6]; CC50/EC50", "result": 7.6},
      {"measurement": "EC50", "setting": "[6]; Hepatitis C virus, 2-fold depression of HCV RNA, read-out: EC50", "result": "37 ± 2.7", "unit": "µM"},
      {"measurement": "EC90", "setting": "[6]; Hepatitis C virus, 10-fold depression of HCV RNA, read-out: EC90", "result": "98 ± 9.3", "unit": "µM"},
      {"measurement": "CC50 at 3 day", "setting": "[7]", "result": "282 ± 21", "unit": "µM"},
      {"measurement": "MIC50", "setting": "B. fragilis group", "result": "> 32", "unit": "µg/mL"},
      {"measurement": "MIC90", "setting": "B. fragilis group", "result": "> 32", "unit": "µg/mL"},
      {"measurement": "MIC50", "setting": "Prevotella/Porphyromonas", "result": "> 32", "unit": "µg/mL"},
      {"measurement": "MIC90", "setting": "Prevotella/Porphyromonas", "result": "> 32", "unit": "µg/mL"},
      {"measurement": "MIC50", "setting": "fusobacteria", "result": "> 32", "unit": "µg/mL"},
      {"measurement": "MIC90", "setting": "fusobacteria", "result": "> 32", "unit": "µg/mL"},
      {"measurement": "MIC50", "setting": "[8]", "result": "> 32", "unit": "µg/mL"},
      {"measurement": "MIC90", "setting": "[8]", "result": "> 32", "unit": "µg/mL"},
      {"measurement": "MIC50", "setting": "[9]", "result": "> 32", "unit": "µg/mL"},
      {"measurement": "MIC90", "setting": "[9]", "result": "> 32", "unit": "µg/mL"},
      {"measurement": "MIC50", "setting": "clostridia; read-out: MIC50", "result": "> 32", "unit": "µg/mL"},
      {"measurement": "MIC90", "setting": "clostridia; read-out: MIC90", "result": "> 32", "unit": "µg/mL"},
      {"measurement": "MIC50", "setting": "[10]; [13]", "result": "> 32", "unit": "µg/mL"},
      {"measurement": "MIC90", "setting": "[10]; [13]", "result": "> 32", "unit": "µg/mL"},
      {"measurement": "Activity against anaerobic bacteria groups (summary in words)", "setting": "[10]; summary of MIC results", "result": "without significant activity"},
      {"measurement": "EC50", "setting": "[11]; [14]", "result": 0.06, "unit": "µg/mL"},
      {"measurement": "EC50", "setting": "[11]; [15]", "result": 0.03, "unit": "µg/mL"},
      {"measurement": "EC50", "setting": "[12]; [14]", "result": 0.45, "unit": "µg/mL"},
      {"measurement": "EC50", "setting": "[12]; [15]", "result": 0.18, "unit": "µg/mL"}
    ]}
  ]
}
